Measurements as given in patent EP0840781B1, “METHODS AND DEVICES FOR THE REMOVAL OF PSORALENS FROM BLOOD PRODUCTS” (Cerus Corporation, priority 1995, dated 1996).
Like-named read-outs stand apart in the source and are kept apart here.

Legend:
[1] = tested on: Salmonella typhimurium tester strains TA97a, TA98, TA100, TA102, TA1537 and TA1538
Text: The second property that is important in testing a compound for use in methods described herein is mutagenicity. The most widely used mutagen/carcinogen screening assay is the Ames test. This assay is described by D.M. Maron and B.N. Ames in Mutation Research 113:173 ( 1983) and a specific screen is described in detail in Example 17, below. The Ames test utilizes several unique strains of Salmonella typhimurium that are histidine- dependent for growth and that lack the usual DNA repair enzymes. The frequency of normal mutations that render the bacteria independent of histidine (i.e., the frequency of spontaneous revertants) is low. The test allows one to evaluate the impact of a compound on this revenant frequency.
Because some substances are not mutagenic by themselves, but are converted to a mutagen by metabolic action, the compound to be tested is mixed with the bacteria on agar plates along with the liver extract. The liver extract serves to mimic metabolic action in an animal.
The mixtures are allowed to incubate. Growth of bacteria (if any) is checked by counting colonies.
In this example the compounds described herein are tested for their dark mutagenicity using an Ames assay. The procedures used for the Salmonella mutagenicity test as described in detail by Maron and Ames were followed exactly. Maron, D.M. and B.N. Ames, Mutation Research 113: 173 ( 1983). A brief description for each procedure is given here. The tester strains TA97a, TA98, TA 100, TA102, TA1537 and TA1538 were obtained from Dr. Ames. TA97a, TA98, TA1537 and TA1538 are frameshift tester strains. TA100 and TA102 are base-substitution tester strains. Upon receipt each strain was cultured under a variety of conditions to confirm the genotypes specific to the strains.
The first tests done with the strains were to determine the range of spontaneous reversion for each of the strains. With each mutagenicity experiment the spontaneous reversion of the tester strains to histidine independence was measured and expressed as the number of spontaneous revertants per plate. This served as the background controls.
For all experiments, the pre-incubation procedure was used. In this procedure one vial of each tester strain was thawed and 20 µL of this culture was added to 6 mL of Oxoid Nutrient Broth #2. This solution was allowed to shake for 10 hours at 37°C. In the pre-incubation procedure, 0.1 mL of this overnight culture was added to each of the required number of sterile test tubes. To half of the tubes 0.5 mL of a 10% S-9 solution containing Aroclor 1254 induced rat liver extract (Molecular Toxicology Inc., Annapolis, MD), and MgCl2, KCl, glucose-6-phosphate, NADP, and sodium phosphate buffer (Sigma, St. Louis, Missouri) were added. To the other half of the tubes 0.5 mL of 0.2M sodium phospate buffer, pH 7.4, was used in place of the S-9 mixture (the - S9 samples). Finally 0.1 mL of the test solution containing either 0, 0.1, 0.5, 1, 5, 10, 50, 100, 250, or 500 µg/mL of the test compound was added. The 0.7 mL mixture was vonexed and then pre-incubated while shaking for 20 minutes at 37°C. After shaking, 2 mL of molten top agar supplemented with histidine and biotin were added to the 0.7 mL mixture and immediately poured onto a minimal glucose agar plate (volume of base agar was 20 mL). The top agar was allowed 30 minutes to solidify and then the plates were inverted and incubated for 44 hours at 37°C. After incubation the number of revertant colonies on each plate were counted.
Maron and Ames (1983) describe the conflicting views with regard to the statistical treatment of data generated from the test.

HIV-1 = details: 16 µM; 1 Minute Irradiation; HIV Starting Titer Approximately 5 Logs (Table 10)
Experimental: Pathogen inactivation efficiency of several compounds described herein was evaluated by examining the ability of the compounds to inactivate cell-free virus (HIV). Inactivation of cell-free HIV was performed as follows.
As in the R17 assay, small aliquots of the compounds listed in TABLES 10 and 11, below, at the concentrations listed in the table, were added to stock HIV-1 to a total of 0.5 mL. The stock HIV (10^5 - 10^7 plaque forming units/mL) was in DMEM/15% FBS. […] Controls included HIV-I stock only, HIV-1 plus UVA only, and HIV-I plus the highest concentration of each psoralen tested, with no UVA. Post irradiation. all samples were store frozen at -70° C until assayed for infectivity by a microtiter plaque assay. Aliquots for measurement of residual HIV infectivity in the samples treated with a compound of the present invention were withdrawn and cultured.
Residual HIV infectivity was assayed using an MT-2 infectivity assay. […] The assay medium was 85% DMEM (with a high glucose concentration) containing 100 µg of streptomycin, 100 U of penicillin, 50 µg of gentamicin, and 1 µg of amphotericin B per mL, 15% FBS and 2 µg of Polybrene (Sigma Chemical Co., St. Louis, Mo.) per mL. Test and control samples from the inactivation procedure were diluted in 50% assay medium and 50% normal human pooled plasma. The samples were serially diluted directly in 96-well plates (Coming Glass Works, Coming, N.Y.). The plates were mixed on an oscillatory shaker for 30 seconds and incubated at 37°C in a 5% CO2 atmosphere for 1 to 18 hours. […] After an additional 1 hour of incubation at 37°C in 5% CO2, 0.075 mL of assay medium containing 1.6% SeaPlaque agarose (FMC Bioproducts, Rockland, Maine) and prewarmed to 38.5°C was added to each well. The plates were kept at 37°C for a few minutes until several plates had accumulated and then centrifuged in plate carriers at 600 x g for 20 minutes in a centrifuge precooled to 10°C. In the centrifuge, cell monolayers formed prior to gelling of the agarose layer. The plates were incubated for 5 days at 37°C in 5% CO2 and stained by the addition of 0.05 mL of 50 µg/mL propidium iodide (Sigma Chemical Co.) in phosphate-buffered saline (pH 7.4) to each well. After 24 to 48 hours, the red fluorescence-stained microplaques were visualized by placing the plates on an 8,000 µW/cm^2 304 nm UV light box (Fotodyne, Inc., New Berlin, Wis.). The plaques were counted at a magnification of x20 to x25 through a stereomicroscope.

## Cc1oc2c(C)c3oc(=O)cc(C)c3cc2c1CN [AMT, 4'-Aminomethyl-4,5',8-trimethylpsoralen, reference compound]
[1]; 0.1 µg/plate
  revertant colonies, TA97a +S9: -23
  revertant colonies, TA97a -S9: 14
  revertant colonies, TA98 +S9: 1
  revertant colonies, TA98 -S9: 3
  revertant colonies, TA100 +S9: -16
  revertant colonies, TA100 -S9: -10
  revertant colonies, TA102 +S9: -20
  revertant colonies, TA102 -S9: 27
  revertant colonies, TA1537 +S9: 2
  revertant colonies, TA1537 -S9: 0
  revertant colonies, TA1538 +S9: 3
  revertant colonies, TA1538 -S9: 3
[1]; 0.5 µg/plate
  revertant colonies, TA97a +S9: 32
  revertant colonies, TA97a -S9: 9
  revertant colonies, TA98 +S9: 3
  revertant colonies, TA98 -S9: 5
  revertant colonies, TA100 +S9: -12
  revertant colonies, TA100 -S9: 13
  revertant colonies, TA102 +S9: 5
  revertant colonies, TA102 -S9: 47
  revertant colonies, TA1537 +S9: 2
  revertant colonies, TA1537 -S9: 3
  revertant colonies, TA1538 +S9: 13
  revertant colonies, TA1538 -S9: 4
[1]; 1 µg/plate
  revertant colonies, TA97a +S9: 32
  revertant colonies, TA97a -S9: 54
  revertant colonies, TA98 +S9: 21
  revertant colonies, TA98 -S9: 5
  revertant colonies, TA100 +S9: -19
  revertant colonies, TA100 -S9: 17
  revertant colonies, TA102 +S9: -17
  revertant colonies, TA102 -S9: 88
  revertant colonies, TA1537 +S9: 3
  revertant colonies, TA1537 -S9: 5
  revertant colonies, TA1538 +S9: 37
  revertant colonies, TA1538 -S9: 4
[1]; 5 µg/plate
  revertant colonies, TA97a +S9: 149
  revertant colonies, TA97a -S9: 73
  revertant colonies, TA98 +S9: 232
  revertant colonies, TA98 -S9: 16
  revertant colonies, TA100 +S9: -6
  revertant colonies, TA100 -S9: 59
  revertant colonies, TA102 +S9: 51
  revertant colonies, TA102 -S9: 266
  revertant colonies, TA1537 +S9: 22
  revertant colonies, TA1537 -S9: 44
  revertant colonies, TA1538 +S9: 177
  revertant colonies, TA1538 -S9: 13
[1]; 10 µg/plate
  revertant colonies, TA98 +S9: 403
  revertant colonies, TA98 -S9: 20
  revertant colonies, TA100 +S9: 17
  revertant colonies, TA100 -S9: 105
  revertant colonies, TA1537 +S9: 30
  revertant colonies, TA1537 -S9: 52
  revertant colonies, TA1538 +S9: 255
  revertant colonies, TA1538 -S9: 14
[1]; 50 µg/plate
  revertant colonies, TA98 +S9: 620
  revertant colonies, TA98 -S9: 69
  revertant colonies, TA100 +S9: 52
  revertant colonies, TA100 -S9: 73
  revertant colonies, TA1537 +S9: 94
  revertant colonies, TA1537 -S9: 2688
[1]; 100 µg/plate
  revertant colonies, TA98 +S9: 745
  revertant colonies, TA98 -S9: 114
  revertant colonies, TA100 +S9: 85
  revertant colonies, TA100 -S9: 75
  revertant colonies, TA1537 +S9: 686
  revertant colonies, TA1537 -S9: 2058
[1]; 100 µg/plate, Table 19 (B) experiment, background 7
  revertant colonies, TA1537 +S9: 500
[1]; 100 µg/plate, Table 19 (B) experiment, background 8
  revertant colonies, TA1537 -S9: 608
[1]; 250 µg/plate
  revertant colonies, TA98 +S9: 933
  revertant colonies, TA98 -S9: 112
  revertant colonies, TA100 +S9: 89
  revertant colonies, TA100 -S9: 24
  revertant colonies, TA1537 +S9: 3738
  revertant colonies, TA1537 -S9: 434
[1]; two-fold or greater increase in revertants above background and dose dependent response
  frameshift mutagenicity (Ames, summary): frameshift mutagenicity at between 5 and 10 µg/plate in TA97a and TA98, at 5µg/plate in TA1537 and at 1 µg/plate in TA1538
[1]; two-fold or greater increase in revertants above background and dose dependent response, TA100, TA102
  base-substitution mutagenicity (Ames, summary): no significant base-substitution mutations
HIV-1
  HIV Log Kill: 1.4
